The values below are quoted from earlier work in patent US20260077140A1, “METERED DOSE INHALER FOR IPRATROPIUM BROMIDE SOLUTION” (Glenmark Pharmaceuticals Limited, priority 2024, published 2026).

For this data set the following is noted: aerosol solution in HFA-134(a) and about 35% ethanol, stored at 50° C.

Like-named read-outs stand apart in the source and are kept apart here.

Turning to `CC(C)[N+]1(C)[C@@H]2CC[C@H]1CC(OC(=O)C(CO)c1ccccc1)C2.[Br-]` (some centres unmarked) [ipratropium bromide], the “decomposition of the ipratropium bromide” value is given as “significant decomposition”. In addition, the “decomposition of the ipratropium bromide” value (addition of 1% water) is “reduced the decomposition due to dehydration”.
